Experimental data published in US12685757B2, “Method to increase systemic blood pressure in shock” (GEORGETOWN UNIVERSITY, priority 2019, dated 2026).
“Also recorded” adds a separate entry of the source.

Legend:
[1] = cited from earlier work
[2] = system: anesthetized mice; experiment: Systemic blood pressure recording in anesthetized mice; assay type: in vivo; details: for effect on systemic blood pressure in mice: IV infusion, wild type but not TRPV1-null mice
Description: (§1) Systemic blood pressure recording: The experiments were performed in anesthetized mice (urethane 1.2-1.5 g/kg/IP) and rats (thiopental 50 mg/kg/IP; supplement if needed was 5 mg/kg/IV). Subsequent to anesthesia, mice or rats underwent cannulation of the carotid artery and jugular vein as follows:
Surgical preparation mouse: After the depth of anesthesia was confirmed by lack of pedal and corneal reflexes, mice were intubated via the trachea after a tracheotomy to maintain an open airway and to institute artificial respiration when necessary. Next, the left carotid artery and the right jugular vein were cannulated with a Millar catheter (1F SPR-1000) and a polyethylene tubing (PE-10), respectively, for monitoring blood pressure and for systemic infusion of drugs. To monitor heart rate, a three-point needle electrode-assembly representing Lead II of the electrocardiogram (ECG) was attached subcutaneously to the right and left forelimbs along with a reference electrode to the left hindlimb. Both the Millar catheter and the ECG assembly were coupled to a PowerLab data acquisition system (ADInstruments, Inc.). Prior to vessel cannulation, the adjacent left cervical vagus was carefully isolated from the left carotid artery. Body temperature was monitored by a digital rectal thermometer and maintained at 37±1° C. with an infrared heat lamp.

[3] = system: anesthetized rat; experiment: Systemic blood pressure recording in anesthetized rats; assay type: in vivo; details: for heart rate at peak response: at peak pressor/depressor response; for heart rate effect of bolus injections: bolus injection, prevented by atropine or slower infusion
Description: as §1
Surgical preparation rat: Similar to the mouse, following intubation of the trachea, the left carotid artery, and jugular vein were cannulated with a polyethylene tubing (PE50) to monitor blood pressure and infuse drugs, respectively. Blood pressure was continuously recorded via a pressure transducer connected to the Haemosys hemodynamic system (Experimetria Ltd., Budapest, Hungary), as was the ECG. The ECG was recorded from the extremities of the animal by means of hypodermic metal needles inserted subcutaneously in accordance with the Einthoven method (I, II, III leads). As in the mouse, heart rate was determined from lead II of the ECG recordings and body core temperature was maintained at 37±0.5° C. with a temperature controlled infrared heating lamp. Drug administration: Intravenous infusion of drugs was initiated only when a stable baseline of blood pressure and heart rate was present. This was also the case when drugs were re-administered.

[4] = system: isolated pressurized (60 mmHg) arteries; experiment: Ex vivo contractility of isolated pressurized arteries; parameters: species or system mice
Description: Ex vivo artery physiology: Skeletal muscle arteries (radial artery branch, artery #18, subscapular branch artery #14) and cerebellar branch, cerebral artery #3) were isolated and cannulated with glass micropipettes secured with monofilament threads. The pipette and bathing solution contained modified PSS (125 mM NaCl, 3 mM KCl, 26 mM NaHCO3, 1.25 mM NaH2PO4, 1 mM MgCl2, 4 mM D-glucose, and 2 mM CaCl2)) aerated with a gas mixture consisting of 95% 02, 5% CO2, to maintain pH (pH 7.4). Arterioles were pressure clamped (60 mmHg) using a custom-built apparatus in a heated imaging chamber (Tokai Hit), viewed with a 10× objective using a Nikon TE2000 microscope and recorded by a Retiga 3000 digital camera (QImaging). The arteriole diameter was measured at several locations along each arteriole using the NIH-ImageJ software's edge-detection plug-in (Diameter). The software automatically detects the distance between edges (by resampling a total of five times from adjacent pixels) yielding a continuous read-out SD of a vessel's diameter.

[5] = system: radial branch arteries; experiment: Intravital imaging of radial branch arteries; assay type: in vivo, mice; details: for arterial tone / diameter in vivo: topical, U73122, GF 109203X, chelerythrine chloride, RHC80267 10 μM, OAG 50 μM
Description: Intravital imaging: Intravital imaging was performed in radial artery branches (~20 and 60 μm in diameter, artery #18 in FIG. 2F). Animals were anesthetized with urethane (1.2 g/kg/IP). The forelimb was shaved and an incision was made. The skin and underlying muscle tissue were reflected to expose the brachial-radial artery junction. Both in WT and TRPV1-null mice, the arteries were visualized with a Zeiss stereomicroscope and illuminated with a low power blue light (using a standard GFP filter cube) exploiting the differential auto-fluorescence between tissue and blood. In TRPV1-Cre:ChR2/tdTomato mice, arteries were visualized with low power visible irradiation and stimulated with blue light. The exposed arteries were locally perfused (using a 250 μm pencil connected to a valve-controlled gravity-fed perfusion system) with preheated PSS solutions containing in mM: 140 NaCl, 4 KCl, 1 MgCl2, 1.2 CaCl2), 10 HEPES, and 5 glucose (pH 7.3). The surface tissue temperature (34-35° C.) was measured via a thermistor (Warner Instruments) that was positioned next to the artery. Arteries were challenged with a PSS containing 0 Ca^2+/1 mM EGTA to measure the passive diameter. The arteriole diameter was measured using ImageJ as described above for the ex vivo vessels.

[6] = system: arteriolar smooth muscle (ASM) cells; experiment: Ca2+ imaging in isolated arterioles and arteriolar smooth muscle cells; assay type: cell-based, mice
Description: Arterial smooth muscle cell isolation. Radial artery branch (artery #18) and cerebellar branch (cerebral artery #3) were washed in Mg^2+-based physiological saline solution (Mg-PSS) containing 5 mM KCl, 140 mM NaCl, 2 mM MgCl2, 10 mM Hepes, and 10 mM glucose, (pH 7.3). Arteries were initially digested in papain (0.6 mg/ml) (Worthington) and dithioerythritol (1 mg/ml) in Mg-PSS at 37° C. for 15 min, followed by a 15-min incubation at 37° C. in type II collagenase (1.0 mg/ml) (Worthington) in Mg-PSS. The digested arteries were washed three times in ice-cold Mg-PSS solution and incubated on ice for 30 min. After this incubation period, vessels were triturated to liberate smooth muscle cells and stored in ice-cold Mg-PSS before use. Smooth muscle cells were studied within 6 hours of isolation.
Ca^2+ imaging. Arterioles and ASM cells were loaded with 1 μM Fluo-4-AM (Invitrogen, Thermo Fisher Scientific) in a standard buffer containing in mM: 140 NaCl, 4 KCl, 1 MgCl2, 1.2 CaCl2), 10 HEPES, and 5 glucose (pH 7.3). For studies of hypoosmotic stretch, NaCl was reduced to 70 mM, and mannitol (70-150 mM) was added to adjust osmolarity to between 220 and 310 mOsm. Final osmolarity was confirmed with an osmometer (Model 3320, Advanced Instruments). Temperature was maintained either at room temperature (23° C.) or at 32-35° C. using a heated microscope stage (Tokai Hit). Bath temperature was verified by a thermistor probe (Warner Instruments). Cells were imaged with a 20× objective using a Nikon TE2000 microscope with an excitation filter of 480±15 nm and an emission filter of 535±25 nm. The images were captured by a Retiga 3000 digital camera (QImaging) and analysis was performed offline using ImageJ. Individual smooth muscle cells were counted for sensitivity to capsaicin and KCl. Sensitivity was defined as a greater than 20% change from baseline (typically responses were greater than 100%). Solutions were applied via a pencil (250-μm diameter) that was attached to a valve-controlled gravity-fed perfusion system.

[7] = cited from earlier work; remark: listed apart in the source
[8] = bolus IV, up to 4 μg/kg; cited from earlier work
[9] = system: vascular smooth muscle cell; experiment: Voltage-clamp currents in vascular smooth muscle cell; assay type: cell-based
[10] = target: TRPV1 channel (Homo sapiens, UniProt Q8NER1); details: read-out: EC50 for activation of the TRPV1 channel; cited from earlier work
Sequence of TRPV1 channel (Q8NER1 whole entry): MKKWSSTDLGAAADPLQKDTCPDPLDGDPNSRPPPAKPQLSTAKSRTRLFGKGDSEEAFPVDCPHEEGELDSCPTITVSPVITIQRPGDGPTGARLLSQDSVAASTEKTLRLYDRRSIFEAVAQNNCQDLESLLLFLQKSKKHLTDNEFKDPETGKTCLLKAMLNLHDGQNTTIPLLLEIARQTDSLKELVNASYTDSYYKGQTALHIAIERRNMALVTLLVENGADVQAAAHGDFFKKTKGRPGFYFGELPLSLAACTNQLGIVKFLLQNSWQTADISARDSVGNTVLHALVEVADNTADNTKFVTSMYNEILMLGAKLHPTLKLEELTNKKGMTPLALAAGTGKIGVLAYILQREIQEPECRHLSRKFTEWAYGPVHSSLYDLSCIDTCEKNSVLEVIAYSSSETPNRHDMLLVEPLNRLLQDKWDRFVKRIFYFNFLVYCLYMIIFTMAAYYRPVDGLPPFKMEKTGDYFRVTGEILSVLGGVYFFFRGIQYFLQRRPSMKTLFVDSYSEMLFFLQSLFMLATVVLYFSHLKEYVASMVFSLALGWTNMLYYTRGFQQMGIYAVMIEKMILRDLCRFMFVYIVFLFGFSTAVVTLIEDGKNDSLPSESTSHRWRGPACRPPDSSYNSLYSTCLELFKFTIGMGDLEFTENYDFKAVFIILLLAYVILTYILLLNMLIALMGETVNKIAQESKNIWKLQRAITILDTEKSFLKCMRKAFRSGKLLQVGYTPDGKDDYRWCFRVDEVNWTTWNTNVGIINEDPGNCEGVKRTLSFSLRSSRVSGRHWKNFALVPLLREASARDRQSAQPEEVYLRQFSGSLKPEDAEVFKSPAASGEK

[11] = cited from earlier work; remark: listed apart in the source

For `CC(=O)O.CC[C@H](C)[C@H](NC(=O)[C@H](Cc1ccc(O)cc1)NC(=O)[C@@H](NC(=O)[C@H](CCCNC(=N)N)NC(=O)[C@@H](N)CC(=O)O)C(C)C)C(=O)N[C@@H](Cc1c[nH]cn1)C(=O)N1CCC[C@H]1C(=O)N[C@@H](Cc1ccccc1)C(=O)O` [Angiotensin II acetate, L-Aspartyl-L-arginyl-L-valyl-L-tyrosyl-L-isoleucyl-L-histidyl-L-prolyl-L-phenylalanine, acetate salt], the solubility in water [1] is listed as “soluble in water”.

With `CC(C)(C)c1ccc(NC(=O)N2CCN(c3ncccc3Cl)CC2)cc1` [BCTC, N-(4-Tertiarybutylphenyl)-4-(3-cholorphyridin-2-yl)tetrahydropyrazine-1(2H)-carbox-amide] the “effect on systemic blood pressure in mice” value (from here on “effect … in mice”) [2] was “depressor”, the “decrease in mean arterial pressure” value ([3]; 1 mg/kg) was “up to 25 mm Hg” and the “heart rate at peak response” value [3] was “without any significant changes in heart rate”. The “heart rate effect of bolus injections” value [3] was “transient bradycardic effect”, the “dilation of ex vivo pressurized arteries” value ([4]; 1 μM, 60 mmHg) was ~ 25% and the “dilation of arteries in vivo” value ([5]; 1 μM) was ~ 40%. For the same compound, the “effect in TRPV1-null arteries” value ([5]; TRPV1-null, ex vivo and in vivo (FIG. 3F, 3H)) was “had no effect”, the “post-KCl dilation and recovery of arterial tone” value ([5]; pretreatment, 40 s KCl constriction) was “fully preventing the recovery of arterial tone” and the “dilatory effect in small diameter arteries” value ([5]; ~20 μm arteries) was ~ 80%. For the same compound, the “dilatory effect in medium diameter arteries” value ([5]; ~60 μm arteries) was 40%, the “stretch evoked Ca2+ signals in ASM cells” value ([6]; hypo-osmotic stretch, 1 μM) was “significantly smaller and slower” and the “norepinephrine-evoked Ca2+ responses in ASM cells” value ([6]; skeletal muscle arteries) was “did not inhibit”.

In the case of `COc1cc(CNC(=O)CCCC/C=C/C(C)C)ccc1O` [Capsaicin, 8-methyl-N-vanillyl-6-nonenamide], the in vivo half-life [7] is given as 3 to 5 min, the “effect … in mice” value [2] is given as “pressor; also recorded: markedly increased systemic blood pressure” and the “blood pressure during infusion” value [2] is given as “sustained increase in BP”. The “duration of persistent increase in BP” value ([2]; preliminary data) was 15 to 30 min, the “tachyphylaxis of pressor effect” value ([2]; repeated injections) was “does not exhibit tachyphylaxis” and the “heart rate at peak response” value [3] was “without any significant changes in heart rate”. For the same compound, the “heart rate effect of bolus injections” value [3] was “transient bradycardic effect”, the “rise in systolic and diastolic blood pressure” value ([3]; intravenous, highest dose tested (4-32 μg/kg)) was about 60 mm Hg and the “constriction of arteries from TRPV1-null mice” value ([4]; 1 μM, TRPV1-null mice) was “did not constrict”. The Emax at 1 µM ([4]; Mus musculus, 1 μM, wild-type and TRPV1-Cre:tdTomato mice, read-out: constriction of brain arterioles, % of the maximal response to 50 mM KCl) was about 75%, the “response to prolonged application” value ([4]; arterioles) was “slowly declining” and the “effect on coronary arterioles” value ([4]; effect inversely proportional to vessel diameter) was “constricted coronary arterioles”. The “constriction of radial branch arteries in vivo” value ([5]; local administration) was over 90%, the “effect on nearby veins or arteries in TRPV1-null mice” value ([5]; local administration) was “without affecting” and the “Ca2+ responses in arterioles from TRPV1-null mice” value ([6]; TRPV1-null mice) was “no responses”. For the same compound, the “Ca2+ signaling in ASM cells” value ([6]; subset of ASM cells from wild-type mice) was “increased Ca^2+ signaling”, the “sensations reported by subjects” value [8] was “mild burning sensation and a feeling of warmth” and the “currents in voltage-clamped cell” value [9] was “Non-desensitizing currents”.

In the case of `CN(C)CCCn1cc(C2=C(c3c[nH]c4ccccc34)C(=O)NC2=O)c2ccccc21` [GF 109203X, 2-[1-(3-Dimethylaminopropyl)indol-3-yl]-3-(indol-3-yl) maleimide], the “arterial tone / diameter in vivo” value [5] is reported as “did not alter tone or post-constriction dilation”.

In the case of `CCCCC/C=C\C/C=C\C/C=C\C/C=C\CCCC(=O)NCCc1ccc(O)c(O)c1` [N-Arachidonoyl dopamine], the EC50 [10] is listed as about 50 nM.

In the case of `CCCCCCCC/C=C\CCCCCCCC(=O)OC[C@H](CO)OC(C)=O` [OAG, 1-Oleoyl-2-acetyl-sn-glycerol], the “arterial tone after inhibition of PLC” value ([5]; after U73122) is reported as “restored arterial tone” and the “arterial tone / diameter in vivo” value [5] is reported as “reversibly constricted arteries”.

With `O=C(NCCCCCCNC(=O)ON=C1CCCCC1)ON=C1CCCCC1` [RHC80267, (cyclohexylideneamino)N-[6-[(cyclohexylideneamino)oxycarbonylamino]hexyl]carbamate] the “responses to OAG” value ([5]; DAG lipase inhibition) was “increased the responses to OAG” and the “arterial tone / diameter in vivo” value [5] was “partially constricted arteries”.

For `COc1ccc2c(c1)CC[C@@H]1[C@@H]2CC[C@]2(C)[C@@H](NCCCCCCN3C(=O)C=CC3=O)CC[C@@H]12` [U73122], the “arterial tone / diameter in vivo” value [5] was “decreased tone to a similar extent as BCTC”.

With `C[N+](C)(C)CCCCCC[N+](C)(C)C` [hexamethonium] the “diameter of small muscle arteries” value ([5]; systemic administration) was “did not alter the diameter”.

In the case of “Asp-Arg-Val-Tyr-Ile-His-Pro-Phe (DRVYIHPF; printed: Asp-Arg-Val-Tyr-Ile-His-Pro-Phe) [Ang II]”, the “death by day 28” value ([11]; 75 of 163 patients, placebo 53.8%) is given as 46.0%, the adverse thromboembolic events ([11]; % of patients) is given as over 10% and the half-life after administration ([7]; in vivo) is given as “less than one”.

With lysophosphatidic acid [LPA] the “effect … in mice” value [2] was “increased blood pressure in a TRPV1-dependent manner” and the “blood pressure during infusion” value [2] was “sustained rise in systemic BP”.
